Legend:
SW-620 = assay: Antiproliferative activity tested as 50% inhibition of DNA synthesis in human SW620 colon carcinoma cell line; format: functional, cell-based
K562 = assay: Antiproliferative activity tested as 50% inhibition of DNA synthesis in human K562 erythroleukemia cell line; format: functional, cell-based

IC50 (SW-620) | IC50 (K562) | SMILES
1.42 µM | 16.3 µM | CCOC(=O)c1csc(-c2nc3c([nH]2)C(=O)C=CC3=O)n1
12.1 µM | 15.1 µM | COC1=CC(=O)c2[nH]c(-c3nc(C(=O)O)cs3)nc2C1=O
13.1 µM | 1.16 µM | CCOC(=O)c1csc(-c2nc3c([nH]2)C(=O)C=C(OC)C3=O)n1
3.03 µM | 7.7 µM | NC(=O)c1csc(-c2nc3c([nH]2)C(=O)C=CC3=O)n1
8.76 µM | 18 µM | O=C(O)c1csc(-c2nc3c([nH]2)C(=O)C=CC3=O)n1
15.9 µM | 1.32 µM | COC1=CC(=O)c2[nH]c(-c3nc(C(N)=O)cs3)nc2C1=O
0.75 µM | 0.62 µM | COc1cccc2c1C(=O)c1c(O)c3c(c(O)c1C2=O)C[C@@](O)(C(=O)CO)C[C@@H]3O[C@H]1C[C@H](N)[C@H](O)[C@H](C)O1 [DOXORUBICIN]

From ChEMBL document CHEMBL1134150, “Synthesis and antiproliferative activity of some thiazolylbenzimidazole-4,7-diones” (Bioorg Med Chem Lett, 2001)
